The source of these data is patent publication US20090239926A1, “METHODS FOR THE TREATMENT OF PSORIASIS OR PSORIATIC ARTHRITIS USING CYCLOPROPYL-N-CARBOXAMIDE” (priority 2008, published 2009).

Series [1] relates to cAMP in PGE2-stimulated human PBMC. Put plainly: PGE2-induced cAMP elevation in human PBMC. As to conditions: PGE2 10 μM. It counts as cell-based. From the text: Prostaglandin E2 (PGE2) binds to prostanoid receptors on monocytes, T cells and other leukocytes and consequently elevates intracellular cAMP levels, resulting in inhibition of cellular responses. The combination of PGE2 and a PDE4 inhibitor synergistically elevates cAMP levels in these cell types, and the elevation of cAMP in PBMC caused by PDE4 inhibitors in the presence of PGE2 is proportional to the inhibitory activity of that PDE4 inhibitor.
Human PBMCs were isolated as described above and plated in 96-well plates at 1×10^6 cells per well in RPMI-1640. The cells were pre-treated with Compound A in a final concentration of 2% DMSO in duplicate at 37° C. in a humidified incubator at 5% CO2 for one hour. The cells were then stimulated with PGE2 (10 μM) (Sigma) for one hour. The cells were lysed with HCl, 0.1N final concentration to inhibit phosphodiesterase activity and the plates were frozen at −20° C. The cAMP produced was measured using cAMP (low pH) Immunoassay kit (R&D Systems).

The test system of series [2] is IL-5 production by human CD4+ T cells. Put plainly: IL-5 production by CD4+ T cells. It counts as cell-based. The note with it: CD4+ T cell, stimulated with CD3 antibody OKT3 and CD28 antibody CD28.2. As to the method:
CD4^+ T cells were purified from human leukocytes obtained from the Blood Center of New Jersey (East Orange, N.J.) by negative selection (Schafer, P. H., et al., J Immunol, 1999. 162(12): 7110-9). CD4^+ T cells were stimulated with CD3 antibody OKT3 (purified from OKT3 hybridoma supernatant) and CD28 antibody CD28.2 (BD Pharmingen) (Hatzelmann, A. and C. Schudt, J Pharmacol Exp Ther, 2001. 297(1): 267-79). IL-5 was measured by ELISA (R&D Systems).

The next series concerns spontaneous behavior. Briefly: Spontaneous behavior (LABORAS) in non-arthritic mice. It counts as in vivo. As to conditions: 25 mg/kg/day. As to the method:
Behavioral studies: The effect of Compound A (25 mg/kg/day) on spontaneous behavior was assessed using the LABORAS (Laboratory Animal Behavior Observation Registration and Analysis System), which is an automated system that detects vibrations evoked by movement of a single rodent in a cage. Pattern recognition software then recognizes and quantifies behaviors, including grooming, activity, climbing, immobility, and feeding.

In series [3] the test system is LPS-stimulated human whole blood TNF-α production. Briefly: LPS-induced TNF-α production in human whole blood. In kind it is cell-based. How it is done:
LPS-induced TNF-α production in Human Whole Blood: The ability of Compound A to inhibit LPS-induced TNF-α production by human whole blood was measured as described above for the LPS-induced TNF-α assay in human PBMC, except that freshly drawn whole blood was used instead of PBMC.

In series [4] the test system is LPS-stimulated human PBMC TNF-α production. Put plainly: LPS-induced TNF-α production in human PBMC. It counts as cell-based. As to conditions: LPS 100 ng/ml, 18-20 hours. As to the method:
LPS-induced TNF-α production in Human PBMC: Human peripheral blood mononuclear cells (PBMC) (2×10^5 cells) were plated in 96-well flat-bottom Costar tissue culture plates (Corning, N.Y., USA) in triplicate. Compound A was dissolved in DMSO (Sigma) and further dilutions were done in culture medium immediately before use. The final DMSO concentration in all samples was 0.25%. Various concentration of Compound A was added to cells one hour before stimulation. Cells were stimulated with LPS (Sigma, St. Louis, Mo., USA) at 100 ng/ml, in the absence or presence of Compound A. Cells were incubated for 18-20 hours at 37 in 5% CO2 and supernatants were then collected, diluted with culture medium and assayed for TNF-α levels by ELISA (Endogen, Boston, Mass., USA) (Muller, G. W., et al., J Med Chem, 1996. 39(17): 3238-40).

For series [5], the system named is TNF-α production by synoviocytes from rheumatoid arthritis patients. Put plainly: TNF-α production by human rheumatoid synovial membrane cells. In kind it is cell-based. As to conditions: 48 hours culture, ELISA. As to the method:
Human Rheumatoid Synovial Membrane Cell: Rheumatoid synovial membrane tissue samples were processed to dissociate the cells from the matrix by digesting the tissue with Collagenase A and DNAse. The cells were then plated into a 96-well flat-bottom plate at 1×10^6/well in RPMI (10% FCS) and treated with Compound A and controls (in triplicate). The cells were cultured for 48 hours at 37° C. in 5% CO2 before supernatants were harvested and analyzed by ELISA.
Compound A was solubilized under sterile conditions in filter-sterilized dimethyl sulphoxide (DMSO). The vehicle control contained the same concentration of DMSO used as the diluent in the highest concentration of drug used. A combined treatment of anti-TNF-α and IL-1RA, both at 10 μg/ml, was used as a positive control.
Background: An ELISA detects its analyte on a solid surface through an enzyme-linked reagent.

The target of series [6] is T1, PDE5 from human platelets (Homo sapiens, UniProt O76074).
T1 construct: PDE3 and PDE5 from human platelets; from tissue; host or cells: human platelets
Put plainly: Specificity: PDE5. In kind it is biochemical. As to the method: (§1) The specificity of Compound A for PDE4 was assessed by testing at a single concentration (10 μM) against bovine PDE1, human PDE2, PDE3 and PDE5 from human platelets, and PDE6 from bovine retinal rod outer segments.

A further series addresses human PDE2 (Homo sapiens, UniProt O00408). Put plainly: Specificity: PDE2. In kind it is biochemical. How it is done: as §1
Series [7] has as its system collagen-induced arthritis in male DBA/1 mice. Put plainly: Type II collagen-induced mice arthritis model. It counts as in vivo. The note with it: 25 mg/kg orally once a day for 10 days. How it is done: Collagen-Induced Arthritis Animal Model: Type II collagen purified from the cartilage of a young calf was dissolved at 4 mg/ml in 0.1M acetic acid and emulsified with an equal volume of complete Freund's adjuvant (CFA). DBA/1 mice (8-12 weeks of age) were then immunized at two sites at the base of the tail on Day 1 with 100 μl of the emulsion.
Treatment regime and measurement of clinical score: 14 animals per test group were treated orally once a day for 10 days (Days 1-10) with vehicle (0.5% carboxymethyl-cellulose/0.25% Tween 80), or Compound A suspended in vehicle at 5 mg/kg or 25mg/kg. The experiment was terminated on Day 10. Mice were monitored daily for signs of arthritis and scored using an established clinical scoring system, where: 0=normal, 1=slight swelling and/or erythema, and 2=pronounced edematous swelling. Each limb was graded, giving a maximum score of 8 per mouse. In addition, paw-swelling was measured using calipers.
Histology: At the end of the experiment, paws from treated mice were fixed in formal saline, decalcified and embedded in wax, sectioned and stained with hematoxylin and eosin. […]

Values joined by “and” are separate entries in the source; they are usually repeats but may differ in a detail not shown here. Identical values can stand only once.

Sequence of human PDE2 (O00408 whole entry): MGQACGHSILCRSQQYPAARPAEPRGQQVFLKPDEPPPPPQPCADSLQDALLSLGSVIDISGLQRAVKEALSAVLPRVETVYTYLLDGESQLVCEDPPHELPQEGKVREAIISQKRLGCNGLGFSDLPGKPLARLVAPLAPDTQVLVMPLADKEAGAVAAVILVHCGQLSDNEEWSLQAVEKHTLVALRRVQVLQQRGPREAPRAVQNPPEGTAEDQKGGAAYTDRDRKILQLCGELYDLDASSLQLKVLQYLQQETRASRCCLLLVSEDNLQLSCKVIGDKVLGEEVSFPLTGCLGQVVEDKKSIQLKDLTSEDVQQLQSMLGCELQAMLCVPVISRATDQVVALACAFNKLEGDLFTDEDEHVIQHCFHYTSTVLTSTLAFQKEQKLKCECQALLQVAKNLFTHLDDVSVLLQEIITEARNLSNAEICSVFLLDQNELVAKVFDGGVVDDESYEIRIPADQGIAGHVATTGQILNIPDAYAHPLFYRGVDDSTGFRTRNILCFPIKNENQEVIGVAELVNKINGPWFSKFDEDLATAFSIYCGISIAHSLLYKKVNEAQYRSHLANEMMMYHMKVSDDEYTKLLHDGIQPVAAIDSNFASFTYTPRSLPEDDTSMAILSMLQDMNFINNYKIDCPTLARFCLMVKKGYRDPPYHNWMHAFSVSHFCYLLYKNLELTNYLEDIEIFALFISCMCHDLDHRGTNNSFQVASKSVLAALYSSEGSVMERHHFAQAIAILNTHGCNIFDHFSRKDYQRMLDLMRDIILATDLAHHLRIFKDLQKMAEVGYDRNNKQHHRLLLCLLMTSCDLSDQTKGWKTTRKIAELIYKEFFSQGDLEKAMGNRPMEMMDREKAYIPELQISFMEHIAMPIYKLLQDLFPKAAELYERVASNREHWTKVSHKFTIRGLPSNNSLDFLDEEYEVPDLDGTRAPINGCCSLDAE

As usually defined, the EC50 is the midpoint of the concentration-response curve. As a reminder, the IC50 is the concentration needed to halve the response being measured. A lower IC50 goes with greater potency in that assay. As a reminder, the inhibition is the relative decrease from the control value, in per cent. For the compound `CCOc1cc([C@@H](CS(C)(=O)=O)N2Cc3cccc(NC(=O)C4CC4)c3C2=O)ccc1OC` [Compound A, cyclopropyl-N-{2-[(1S)-1-(3-ethoxy-4-methoxyphenyl)-2-(methylsulfonyl)ethyl]-3-oxoisoindoline-4-yl}carboxamide], the EC50 in series [1] was 6.1 µM and 2.9 µg/mL. The IC50 in series [2] is 520 nM and 0.25 µg/mL; in [3], 240 nM and 0.11 µg/mL; in series [4] it was 51 nM and 0.024 µg/mL; in series [5] it was 100 nM. In the series on spontaneous behavior, the effect on climbing entry is listed as “little or no effect”. Besides, in the series on spontaneous behavior, the effect on grooming result is reported as “little or no effect”. For the same compound, the effect on locomotion entry in the series on spontaneous behavior is reported as “only a modest reduction”. Further, the “effect on time spent immobile” value with spontaneous behavior is given as “little or no effect”. In addition, the inhibition at 10 µM in series [6] is -7%; at human PDE2, -14%. For the same compound, the “clinical severity of arthritis (clinical score)” value in [7] (FIG. 3) is reported as “effective in reducing the clinical severity of arthritis”. The “histological severity of arthritis” value in series [7] (P<0.05, FIG. 4) is given as “reduced the histological severity of arthritis”.
